26 molecules from patent publication US12552758B2, “Inhibitors of MLH1 and/or PMS2 for cancer treatment” (NeoPhore Limited, priority 2020, dated 2026) can be followed below.

Experiment [1] has as its target recombinant N-terminal MLH1 (residues 15-340) (Homo sapiens (Human), UniProt P40692). Briefly: Fluorescence polarisation assay for MLH1 (protocol for all Examples except Examples 64, 76, 90 and 95). It is filed as binding. Conditions: FP probe displacement; 100 nM N-terminal MLH1, 5 nM probe compound, read after 15 minutes; all Examples except 64, 76, 90 and 95. The protocol:
Fluorescence Polarisation Assay for MLH1 (Protocol for all Examples Except Examples 64, 76, 90 and 95)
(§1) Test compounds, as 10 mM DMSO stocks, were dispensed into a Black Fluotrac 200 384 well medium binding plate (Greiner Bio-One, item number 781076) using a Labcyte Echo acoustic liquid handler. For single point screening, test compounds were added to wells in columns 1-22 whilst DMSO was added to wells in columns 23 and 24 in order to normalise the plate. For potency determination, serial dilutions of test compounds were added to wells in columns 3-22 and DMSO volume was normalised across the plate.
20 μL assay buffer was added to all wells in columns 1 and 24 (column 24 only for single point screening) using a MultiDrop Combi (ThermoFisher). Plates were centrifuged for 1 minute at 250×g and were incubated at room temperature for 30 minutes prior to the addition of 20 μL of 2×(10 nM) of 5-((5-(4-((2-(2,4-dihydroxy-5-isopropylbenzoyl)isoindolin-5-yl)methyl)piperazin-1-yl)pentyl)carbamoyl)-2-(6-(dimethylamino)-3-(dimethyliminio)-3H-xanthen-9-yl)benzoate (referred to hereinafter as “probe compound”) in assay buffer (prepared from a 100 μM DMSO stock) with a MultiDrop Combi (ThermoFisher). The final concentration of N-terminal MLH1 was 100 nM and the final concentration of probe compound was 5 nM.
Compound plates were centrifuged for 1 minute at 250×g for 1 minute and were incubated at room temperature for 15 minutes before being read on a PheraStar FSX (fitted with 384-well aperture spoon and 540 590 590 FP optic module). The gain and focus were adjusted before each plate was read so that the polarisation of a no enzyme control (column 24) was equal to 35 mP. Data were normalised against the no inhibitor controls (column 23) and no enzyme controls (column 24).

Experiment [2] addresses recombinant N-terminal PMS2 (residues 1-365) (Homo sapiens (Human), UniProt P54278). Briefly: Fluorescence polarisation assay for PMS2. It is filed as binding. Conditions: FP probe displacement; 10 nM N-terminal PMS2, 5 nM probe compound, read after 1 hour. On the procedure: Fluorescence Polarisation Assay for PMS2
as §1
20 μL assay buffer was added to all wells in columns 1 and 24 (column 24 only for single point screening) using a MultiDrop Combi (ThermoFisher). Plates were centrifuged for 1 minute at 250×g and were incubated at room temperature for 30 minutes prior to the addition of 20 μL of 2×([…]) of 5-((5-(4-((2-(2,4-dihydroxy-5-isopropylbenzoyl)isoindolin-5-yl)methyl)piperazin-1-yl)pentyl)carbamoyl)-2-(6-(dimethylamino)-3-(dimethyliminio)-3H-xanthen-9-yl)benzoate (referred to hereinafter as “probe compound”) in assay buffer (prepared from a 100 μM DMSO stock) with a MultiDrop Combi (ThermoFisher). The final concentration of N-terminal PMS2 was 10 nM and the final concentration of probe compound was 5 nM.
Compound plates were centrifuged for 1 minute at 250×g for 1 minute and were incubated at room temperature for 1 hour before being read on a PheraStar FSX (fitted with 384-well aperture spoon and 540 590 590 FP optic module). The gain and focus were adjusted before each plate was read so that the polarisation of a no enzyme control (column 24) was equal to 35 mP. Data were normalised against the no inhibitor controls (column 23) and no enzyme controls (column 24).

recombinant N-terminal PMS2 (residues 1-365), sequence (P54278 1-365): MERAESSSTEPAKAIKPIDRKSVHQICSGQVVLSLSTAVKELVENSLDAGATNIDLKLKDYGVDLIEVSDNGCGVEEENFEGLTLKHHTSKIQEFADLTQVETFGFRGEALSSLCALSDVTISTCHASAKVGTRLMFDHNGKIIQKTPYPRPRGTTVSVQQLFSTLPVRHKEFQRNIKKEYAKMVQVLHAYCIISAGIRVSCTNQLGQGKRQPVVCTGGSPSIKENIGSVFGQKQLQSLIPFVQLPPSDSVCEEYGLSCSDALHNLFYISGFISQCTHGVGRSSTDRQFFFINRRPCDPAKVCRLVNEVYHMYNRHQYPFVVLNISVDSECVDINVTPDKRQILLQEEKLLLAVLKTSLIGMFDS
recombinant N-terminal MLH1 (residues 15-340), sequence (P40692 15-340): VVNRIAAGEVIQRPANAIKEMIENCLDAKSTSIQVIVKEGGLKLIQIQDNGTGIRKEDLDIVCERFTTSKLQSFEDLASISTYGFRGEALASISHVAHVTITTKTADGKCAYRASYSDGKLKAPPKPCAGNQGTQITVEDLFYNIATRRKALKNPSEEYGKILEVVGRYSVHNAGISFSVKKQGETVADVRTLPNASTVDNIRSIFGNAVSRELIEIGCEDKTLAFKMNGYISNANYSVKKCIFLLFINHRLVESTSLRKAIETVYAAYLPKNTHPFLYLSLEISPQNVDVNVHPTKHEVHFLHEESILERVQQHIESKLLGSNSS

Turning to `Cc1c(O)cc(O)c(C(=O)N2Cc3ccc(CN4CCN(C)CC4)cc3C2)c1OCC1CCCCC1` [Example 94, (2-(Cyclohexylmethoxy)-4,6-dihydroxy-3-methylphenyl)(5-((4-methylpiperazin-1-yl)methyl)isoindolin-2-yl)methanone], the IC50 (commonly the concentration that inhibits the measured activity by half) is over 10 µM in experiment [1] and under 1 µM in experiment [2].
On the same counts, the results for `O=C(c1c(O)cc(O)cc1OCc1ccccc1)N1Cc2ccc(Br)cc2C1` [Example 23, (2-benzyloxy-4,6-dihydroxy-phenyl)-(5-bromoisoindolin-2-yl)methanone] are under 1 µM and under 1 µM.
On the same counts, the results for `CC(=O)Nc1cccc2c1CN(C(=O)c1c(O)cc(O)c(C)c1OCc1ccccc1)C2` [Example 87, N-(2-(2-(benzyloxy)-4,6-dihydroxy-3-methylbenzoyl)isoindolin-4-yl)acetamide] are over 10 µM and under 1 µM.
For `CCOc1c(C)c(O)cc(O)c1C(=O)N1Cc2ccc(CN3CCN(C)CC3)cc2C1` [Example 93, (2-Ethoxy-4,6-dihydroxy-3-methylphenyl)(5-((4-methylpiperazin-1-yl)methyl)isoindolin-2-yl)methanone], in that order: over 10 µM and under 1 µM.
Take `Cc1c(O)cc(O)c(C(=O)N2CCc3cnccc3C2)c1OCc1ccccc1` [Example 43, (2-benzyloxy-4,6-dihydroxy-3-methyl-phenyl)-(3,4-dihydro-1H-2,6-naphthyridin-2-yl)methanone]: the IC50 in experiment [1] is over 10 µM; in experiment [2], 1 to 10 µM.
For `O=C(c1c(O)cc(O)cc1OCc1ccccc1)N1CC[C@H](O)C1` [Example 6, (2-benzyloxy-4,6-dihydroxy-phenyl)-[(3S)-3-hydroxypyrrolidin-1-yl]methanone], in that order: over 10 µM and over 10 µM.
For `O=C(c1c(O)cc(O)cc1OCc1ncccn1)N1CCCC1` [Example 1, [2,4-dihydroxy-6-(pyrimidin-2-ylmethoxy)phenyl]-pyrrolidin-1-yl-methanone], in that order: over 10 µM and over 10 µM.
On the same counts, the results for `COc1ccc2c(c1)CN(C(=O)c1c(O)cc(O)cc1OC(C)c1ccccc1)C2` (stereo not shown) [Example 28, [2,4-dihydroxy-6-(1-phenylethoxy)phenyl]-(5-methoxyisoindolin-2-yl)methanone] are 1 to 10 µM and under 1 µM.
For `Cc1c(O)cc(O)c(C(=O)N2Cc3cccc(N4CC(C#N)C4)c3C2)c1OCc1ccccc1` [Example 91, 1-(2-(2-(Benzyloxy)-4,6-dihydroxy-3-methylbenzoyl)isoindolin-4-yl)azetidine-3-carbonitrile], the IC50 in experiment [1] was over 10 µM; in experiment [2], under 1 µM.
For `Cc1c(O)cc(O)c(C(=O)N2CCc3ncccc3C2)c1OCc1ccccc1` [Example 54, (2-(benzyloxy)-4,6-dihydroxy-3-methylphenyl)(7,8-dihydro-1,6-naphthyridin-6(5H)-yl)methanone], in that order: over 10 µM and 1 to 10 µM.
On the same counts, the results for `Cc1c(O)cc(O)c(C(=O)N2CCc3ccccc3C2CO)c1OCc1ccccc1` (stereo not shown) [Example 65, (2-(Benzyloxy)-4,6-dihydroxy-3-methylphenyl)(1-(hydroxymethyl)-3,4-dihydroisoquinolin-2(1H)-yl)methanone] are over 10 µM and over 10 µM.
On the same counts, the results for `COc1ccc2c(c1)CCN(C(=O)c1c(O)cc(O)c(C)c1OCc1ccccc1)C2` [Example 41, (2-benzyloxy-4,6-dihydroxy-3-methyl-phenyl)-(6-methoxy-3,4-dihydro-1H-isoquinolin-2-yl)methanone] are over 10 µM and under 1 µM.
As to `O=C(c1c(O)cc(O)cc1OCc1ccc(F)cc1)N1CCCC1` [Example 15, [2-[(4-fluorophenyl)methoxy]-4,6-dihydroxy-phenyl]-pyrrolidin-1-yl-methanone], the IC50 in experiment [1] and in experiment [2] was over 10 µM in each case.
For `Cc1c(O)cc(O)c(C(=O)N2Cc3ccccc3C[C@H]2CO)c1OCc1ccccc1` [Example 62, (S)-(2-(Benzyloxy)-4,6-dihydroxy-3-methylphenyl)(3-(hydroxymethyl)-3,4-dihydroisoquinolin-2(1H)-yl)methanone], the values for the IC50 in experiment [1] and in experiment [2] were over 10 µM and 1 to 10 µM, respectively.
On the same counts, the results for `Cc1c(O)cc(O)c(C(=O)N2Cc3ccccc3C2)c1OCc1ccccc1` [Example 59, (2-(benzyloxy)-4,6-dihydroxy-3-methylphenyl)(isoindolin-2-yl)methanone] are over 10 µM and under 1 µM.
Consider `COc1ccc(COc2cc(O)cc(O)c2C(=O)N2CCCC2)cc1` [Example 16, [2,4-dihydroxy-6-[(4-methoxyphenyl)methoxy]phenyl]-pyrrolidin-1-yl-methanone], for which the IC50 in experiment [1] and in experiment [2] was over 10 µM each time.
As for `Cc1cccc(COc2cc(O)cc(O)c2C(=O)N2Cc3cccnc3C2)c1` [Example 32, 5,7-dihydropyrrolo[3,4-b]pyridin-6-yl-[2,4-dihydroxy-6-(m-tolylmethoxy)phenyl]methanone], the IC50 in experiment [1] is 1 to 10 µM; in experiment [2], under 1 µM.
On the same counts, the results for `Cc1c(O)cc(O)c(C(=O)N2CCc3ccccc3C2)c1OCc1ccn(C)n1` [Example 57, (3,4-dihydroisoquinolin-2(1H)-yl)(4,6-dihydroxy-3-methyl-2-((1-methyl-1H-pyrazol-3-yl)methoxy)phenyl)methanone] are over 10 µM and over 10 µM.
On the same counts, the results for `Cc1cccc(COc2c(C)c(O)cc(O)c2C(=O)N2Cc3cccnc3C2)c1` [Example 31, 5,7-dihydropyrrolo[3,4-b]pyridin-6-yl-[4,6-dihydroxy-3-methyl-2-(m-tolylmethoxy)phenyl]methanone] are over 10 µM and under 1 µM.
On the same counts, the results for `O=C(c1c(O)cc(O)cc1OCc1ccccc1)N1Cc2cccnc2C1` [Example 18, (2-benzyloxy-4,6-dihydroxy-phenyl)-(5,7-dihydropyrrolo[3,4-b]pyridin-6-yl)methanone] are 1 to 10 µM and 1 to 10 µM.
Regarding `Cc1c(O)cc(O)c(C(=O)N2CCc3cc(C(=O)N(C)C)ccc3C2)c1OCc1ccccc1` [Example 78, 2-(2-(benzyloxy)-4,6-dihydroxy-3-methylbenzoyl)-N,N-dimethyl-1,2,3,4-tetrahydroisoquinoline-6-carboxamide], the results for the half-maximal inhibitory concentration (IC50) in experiment [1] and in experiment [2] were over 10 µM and under 1 µM, respectively.
`O=C(c1c(O)cc(O)cc1OCc1ccccc1)N1CCCCC1` [Example 5, (2-benzyloxy-4,6-dihydroxy-phenyl)-(1-piperidyl)methanone]: the IC50 in experiment [1] and in experiment [2] was over 10 µM each time.
Consider `Cc1c(O)cc(O)c(C(=O)N2Cc3cccc(N)c3C2)c1OCc1ccccc1` [Example 50, (4-aminoisoindolin-2-yl)(2-(benzyloxy)-4,6-dihydroxy-3-methylphenyl)methanone], for which the half-maximal inhibitory concentration (IC50) in experiment [1] was over 10 µM; in experiment [2] it was under 1 µM.
On the same counts, the results for `COc1ccc2c(c1)CN(C(=O)c1c(O)cc(O)cc1OCc1ccccc1)C2` [Example 25, (2-benzyloxy-4,6-dihydroxy-phenyl)-(5-methoxyisoindolin-2-yl)methanone] are under 1 µM and under 1 µM.
Consider `Cc1c(O)cc(O)c(C(=O)N2CCc3ccccc3C2)c1OCc1ccc(F)cc1` [Example 48, 3,4-dihydro-1H-isoquinolin-2-yl-[2-[(4-fluorophenyl)methoxy]-4,6-dihydroxy-3-methyl-phenyl]methanone], for which the IC50 in experiment [1] is over 10 µM; in experiment [2], under 1 µM.
`CCc1c(O)cc(O)c(C(=O)N2CCCC2)c1OCc1ccccc1` [Example 11, (2-benzyloxy-3-ethyl-4,6-dihydroxy-phenyl)-pyrrolidin-1-yl-methanone]: the IC50 in experiment [1] and in experiment [2] was over 10 µM each time.
